In PubChem BioAssay AID1963974 (Molecular Pharmacology Branch, DTP, NCI, 2024):

Tested on: 648629-189-R-J1-PDC spheroids with HUVEC/MSC, viability
Assay: Anticancer human tumor 648629-189-R-J1-PDC patient-derived bladder carcinoma cell line growth inhibition [PI3K]
Conditions: for IC50: curve of first compound; for viability, T/C: stronger effect = lower value
In short: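 Multi-cell spheroids combine tumor cells with HUVEC and human MSCs, treated with targeted agents alone or with inavolisib, alpelisib, duvelisib or copanlisib. Concentrations fall in half-log steps from at or near clinical Cmax, or from 10 microM where Cmax is unknown; viability read-out.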

[1] = second compound 0.00316 µM, first compound 0.0316 µM
[2] = second compound 0.00316 µM, first compound 0.1 µM
[3] = second compound 0.01 µM, first compound 0.0316 µM
[4] = second compound 0.01 µM, first compound 0.1 µM
[5] = second compound 0.0316 µM, first compound 0.0316 µM
[6] = second compound 0.0316 µM, first compound 0.1 µM
[7] = second compound 0.1 µM, first compound 0.0316 µM
[8] = second compound 0.1 µM, first compound 0.1 µM
[9] = second compound 0.316 µM, first compound 0.0316 µM
[10] = second compound 0.316 µM, first compound 0.1 µM
[11] = second compound 1 µM, first compound 0.0316 µM
[12] = second compound 1 µM, first compound 0.1 µM
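Further: spheroids exposed to agents for seven days before reading.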
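Wherever viability, T/C is given: percent of vehicle control luminescence where 100% = DMSO treated spheroids.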

## CC(=O)c1c(C)c2cnc(Nc3ccc(N4CCNCC4)cn3)nc2n(C2CCCC2)c1=O + COc1c(OCCCN2CCOCC2)ccc2c3n(c(=NC(=O)c4cnc(N)nc4)nc12)CCN3
Second compound 0.00316 µM
  IC50: > 0.1 µM
Second compound 0.01 µM
  IC50: > 0.1 µM
Second compound 0.0316 µM
  IC50: > 0.1 µM
Second compound 0.1 µM
  IC50: > 0.1 µM
Second compound 0.316 µM
  IC50: < 0.000316 µM
Second compound 1 µM
  IC50: < 0.000316 µM
Second compound 0.00316 µM, first compound 0.000316 µM
  viability, T/C: 106%
Second compound 0.00316 µM, first compound 0.001 µM
  viability, T/C: 98.1%
Second compound 0.00316 µM, first compound 0.00316 µM
  viability, T/C: 99.6%
Second compound 0.00316 µM, first compound 0.01 µM
  viability, T/C: 101%
[1]
  viability, T/C: 117%
[2]
  viability, T/C: 98.9%
Second compound 0.01 µM, first compound 0.000316 µM
  viability, T/C: 98.2%
Second compound 0.01 µM, first compound 0.001 µM
  viability, T/C: 110%
Second compound 0.01 µM, first compound 0.00316 µM
  viability, T/C: 99.8%
Second compound 0.01 µM, first compound 0.01 µM
  viability, T/C: 101%
[3]
  viability, T/C: 103%
[4]
  viability, T/C: 107%
Second compound 0.0316 µM, first compound 0.000316 µM
  viability, T/C: 89.7%
Second compound 0.0316 µM, first compound 0.001 µM
  viability, T/C: 100%
Second compound 0.0316 µM, first compound 0.00316 µM
  viability, T/C: 106%
Second compound 0.0316 µM, first compound 0.01 µM
  viability, T/C: 99.1%
[5]
  viability, T/C: 89.4%
[6]
  viability, T/C: 94.2%
Second compound 0.1 µM, first compound 0.000316 µM
  viability, T/C: 68.6%
Second compound 0.1 µM, first compound 0.001 µM
  viability, T/C: 66.8%
Second compound 0.1 µM, first compound 0.00316 µM
  viability, T/C: 64.8%
Second compound 0.1 µM, first compound 0.01 µM
  viability, T/C: 61%
[7]
  viability, T/C: 70.1%
[8]
  viability, T/C: 68.4%
Second compound 0.316 µM, first compound 0.000316 µM
  viability, T/C: 23.5%
Second compound 0.316 µM, first compound 0.001 µM
  viability, T/C: 23.2%
Second compound 0.316 µM, first compound 0.00316 µM
  viability, T/C: 22.4%
Second compound 0.316 µM, first compound 0.01 µM
  viability, T/C: 26.3%
[9]
  viability, T/C: 27.6%
[10]
  viability, T/C: 19.6%
Second compound 1 µM, first compound 0.000316 µM
  viability, T/C: 3.72%
Second compound 1 µM, first compound 0.001 µM
  viability, T/C: 3.62%
Second compound 1 µM, first compound 0.00316 µM
  viability, T/C: 3.08%
Second compound 1 µM, first compound 0.01 µM
  viability, T/C: 4%
[11]
  viability, T/C: 4.37%
[12]
  viability, T/C: 2.62%

## CNC(=O)c1ccc(N2C(=S)N(c3ccc(C#N)c(C(F)(F)F)c3)C(=O)C2(C)C)cc1F + COc1c(OCCCN2CCOCC2)ccc2c3n(c(=NC(=O)c4cnc(N)nc4)nc12)CCN3
Second compound 0.00316 µM
  IC50: > 10 µM
Second compound 0.01 µM
  IC50: > 10 µM
Second compound 0.0316 µM
  IC50: > 10 µM
Second compound 0.1 µM
  IC50: > 10 µM
Second compound 0.316 µM
  IC50: < 0.0316 µM
Second compound 1 µM
  IC50: < 0.0316 µM
[1]
  viability, T/C: 107%
[2]
  viability, T/C: 103%
Second compound 0.00316 µM, first compound 0.316 µM
  viability, T/C: 113%
Second compound 0.00316 µM, first compound 1 µM
  viability, T/C: 116%
Second compound 0.00316 µM, first compound 3.16 µM
  viability, T/C: 121%
Second compound 0.00316 µM, first compound 10 µM
  viability, T/C: 97.7%
[3]
  viability, T/C: 117%
[4]
  viability, T/C: 108%
Second compound 0.01 µM, first compound 0.316 µM
  viability, T/C: 102%
Second compound 0.01 µM, first compound 1 µM
  viability, T/C: 103%
Second compound 0.01 µM, first compound 3.16 µM
  viability, T/C: 107%
Second compound 0.01 µM, first compound 10 µM
  viability, T/C: 81.1%
[5]
  viability, T/C: 93.7%
[6]
  viability, T/C: 92.2%
Second compound 0.0316 µM, first compound 0.316 µM
  viability, T/C: 114%
Second compound 0.0316 µM, first compound 1 µM
  viability, T/C: 101%
Second compound 0.0316 µM, first compound 3.16 µM
  viability, T/C: 98.6%
Second compound 0.0316 µM, first compound 10 µM
  viability, T/C: 84%
[7]
  viability, T/C: 66%
[8]
  viability, T/C: 73.9%
Second compound 0.1 µM, first compound 0.316 µM
  viability, T/C: 72.8%
Second compound 0.1 µM, first compound 1 µM
  viability, T/C: 74.8%
Second compound 0.1 µM, first compound 3.16 µM
  viability, T/C: 62.9%
Second compound 0.1 µM, first compound 10 µM
  viability, T/C: 67.5%
[9]
  viability, T/C: 20.7%
[10]
  viability, T/C: 26.3%
Second compound 0.316 µM, first compound 0.316 µM
  viability, T/C: 28.3%
Second compound 0.316 µM, first compound 1 µM
  viability, T/C: 25.5%
Second compound 0.316 µM, first compound 3.16 µM
  viability, T/C: 24.8%
Second compound 0.316 µM, first compound 10 µM
  viability, T/C: 25.9%
[11]
  viability, T/C: 4.11%
[12]
  viability, T/C: 3.82%
Second compound 1 µM, first compound 0.316 µM
  viability, T/C: 3.77%
Second compound 1 µM, first compound 1 µM
  viability, T/C: 4.37%
Second compound 1 µM, first compound 3.16 µM
  viability, T/C: 3.8%
Second compound 1 µM, first compound 10 µM
  viability, T/C: 3.34%

## Cn1cnc2c(F)c(Nc3ccc(Br)cc3Cl)c(C(=O)NOCCO)cc21 + COc1c(OCCCN2CCOCC2)ccc2c3n(c(=NC(=O)c4cnc(N)nc4)nc12)CCN3
Second compound 0.00316 µM
  IC50: > 3 µM
Second compound 0.01 µM
  IC50: > 3 µM
Second compound 0.0316 µM
  IC50: > 3 µM
Second compound 0.1 µM
  IC50: > 3 µM
Second compound 0.316 µM
  IC50: < 0.00949 µM
Second compound 1 µM
  IC50: < 0.00949 µM
Second compound 0.00316 µM, first compound 0.00949 µM
  viability, T/C: 121%
Second compound 0.00316 µM, first compound 0.03 µM
  viability, T/C: 82.1%
Second compound 0.00316 µM, first compound 0.0949 µM
  viability, T/C: 101%
Second compound 0.00316 µM, first compound 0.3 µM
  viability, T/C: 83.6%
Second compound 0.00316 µM, first compound 0.949 µM
  viability, T/C: 96.6%
Second compound 0.00316 µM, first compound 3 µM
  viability, T/C: 92.3%
Second compound 0.01 µM, first compound 0.00949 µM
  viability, T/C: 103%
Second compound 0.01 µM, first compound 0.03 µM
  viability, T/C: 90.2%
Second compound 0.01 µM, first compound 0.0949 µM
  viability, T/C: 99.2%
Second compound 0.01 µM, first compound 0.3 µM
  viability, T/C: 89.3%
Second compound 0.01 µM, first compound 0.949 µM
  viability, T/C: 90.5%
Second compound 0.01 µM, first compound 3 µM
  viability, T/C: 92.7%
Second compound 0.0316 µM, first compound 0.00949 µM
  viability, T/C: 90%
Second compound 0.0316 µM, first compound 0.03 µM
  viability, T/C: 93.8%
Second compound 0.0316 µM, first compound 0.0949 µM
  viability, T/C: 102%
Second compound 0.0316 µM, first compound 0.3 µM
  viability, T/C: 87%
Second compound 0.0316 µM, first compound 0.949 µM
  viability, T/C: 80.8%
Second compound 0.0316 µM, first compound 3 µM
  viability, T/C: 78.6%
Second compound 0.1 µM, first compound 0.00949 µM
  viability, T/C: 62.4%
Second compound 0.1 µM, first compound 0.03 µM
  viability, T/C: 59.3%
Second compound 0.1 µM, first compound 0.0949 µM
  viability, T/C: 59%
Second compound 0.1 µM, first compound 0.3 µM
  viability, T/C: 73.5%
Second compound 0.1 µM, first compound 0.949 µM
  viability, T/C: 64.4%
Second compound 0.1 µM, first compound 3 µM
  viability, T/C: 59.4%
Second compound 0.316 µM, first compound 0.00949 µM
  viability, T/C: 20.6%
Second compound 0.316 µM, first compound 0.03 µM
  viability, T/C: 25.5%
Second compound 0.316 µM, first compound 0.0949 µM
  viability, T/C: 24.7%
Second compound 0.316 µM, first compound 0.3 µM
  viability, T/C: 28%
Second compound 0.316 µM, first compound 0.949 µM
  viability, T/C: 33.7%
Second compound 0.316 µM, first compound 3 µM
  viability, T/C: 32.3%
Second compound 1 µM, first compound 0.00949 µM
  viability, T/C: 3.08%
Second compound 1 µM, first compound 0.03 µM
  viability, T/C: 3.98%
Second compound 1 µM, first compound 0.0949 µM
  viability, T/C: 2.82%
Second compound 1 µM, first compound 0.3 µM
  viability, T/C: 3.55%
Second compound 1 µM, first compound 0.949 µM
  viability, T/C: 2.39%
Second compound 1 µM, first compound 3 µM
  viability, T/C: 1.24%
